Laboratory results published in PubChem BioAssay (NCI).
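Here, GI50 denotes the concentration required for 50% inhibition of growth. TGI denotes the concentration required for complete inhibition of growth.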

Columns and labels:
Assay in all cases: NCI tumour cell line growth inhibition, 384-well format
UACC-62 melanoma = system: UACC-62 melanoma
UO-31 renal = system: UO-31 renal
NCI-H322M lung = system: NCI-H322M lung
UACC-257 melanoma = system: UACC-257 melanoma
NCI-H460 NSCLC = system: NCI-H460 NSCLC
RPMI-8226 leukemia = system: RPMI-8226 leukemia
MDA-MB-468 breast = system: MDA-MB-468 breast
HT29 colon = system: HT29 colon
HOP-62 NSCLC = system: HOP-62 NSCLC
DU-145 prostate = system: DU-145 prostate
SF-539 CNS = system: SF-539 CNS
HCC-2998 colon = system: HCC-2998 colon
MDA-MB-231 breast = system: MDA-MB-231 breast
CAKI-1 renal = system: CAKI-1 renal
SW-620 colon = system: SW-620 colon
TK-10 renal = system: TK-10 renal
ACHN renal = system: ACHN renal
U251 glioblastoma = system: U251 glioblastoma
NCI-H23 lung = system: NCI-H23 lung
KM12 colon = system: KM12 colon
NCI-H522 lung = system: NCI-H522 lung
SF-268 CNS = system: SF-268 CNS
HS 578T breast = system: HS 578T breast
MALME-3M melanoma = system: MALME-3M melanoma
T-47D breast = system: T-47D breast
OVCAR-4 ovarian = system: OVCAR-4 ovarian
MDA-MB-435 melanoma = system: MDA-MB-435 melanoma
SF-295 CNS = system: SF-295 CNS
EKVX NSCLC = system: EKVX NSCLC
OVCAR-8 ovarian = system: OVCAR-8 ovarian
A549 NSCLC = system: A549 NSCLC
SNB-19 CNS = system: SNB-19 CNS
COLO 205 colon = system: COLO 205 colon
SR leukemia = system: SR leukemia
SN12C renal = system: SN12C renal
SK-OV-3 ovarian = system: SK-OV-3 ovarian
SNB-75 CNS = system: SNB-75 CNS
HOP-92 NSCLC = system: HOP-92 NSCLC
A498 renal = system: A498 renal
RXF 393 renal = system: RXF 393 renal
HCT-15 colon = system: HCT-15 colon
NCI-H226 lung = system: NCI-H226 lung
MOLT-4 leukemia = system: MOLT-4 leukemia
K-562 leukemia = system: K-562 leukemia
IGROV1 ovarian = system: IGROV1 ovarian
SK-MEL-5 melanoma = system: SK-MEL-5 melanoma
CCRF-CEM leukemia = system: CCRF-CEM leukemia
BT-549 breast = system: BT-549 breast
OVCAR-5 ovarian = system: OVCAR-5 ovarian
OVCAR-3 ovarian = system: OVCAR-3 ovarian
M14 melanoma = system: M14 melanoma
HL-60(TB) leukemia = system: HL-60(TB) leukemia
NCI/ADR-RES ovarian = system: NCI/ADR-RES ovarian
786-0 renal = system: 786-0 renal
PC-3 prostate = system: PC-3 prostate
MCF7 breast = system: MCF7 breast
SK-MEL-28 melanoma = system: SK-MEL-28 melanoma
LOX IMVI melanoma = system: LOX IMVI melanoma

CSc1nc(N)cc(Oc2ccc(-c3nc(Nc4cccc(C(F)(F)F)c4)n[nH]3)cc2)n1
GI50 (UACC-62 melanoma): 0.377 µM
TGI (UACC-62 melanoma): 2.86 µM
GI50 (UO-31 renal): 0.502 µM
TGI (UO-31 renal): 14.3 µM
GI50 (NCI-H322M lung): 1.85 µM
TGI (NCI-H322M lung): 6.78 µM
GI50 (UACC-257 melanoma): 0.284 µM
TGI (UACC-257 melanoma): 0.902 µM
GI50 (NCI-H460 NSCLC): 0.28 µM
TGI (NCI-H460 NSCLC): 0.756 µM
GI50 (RPMI-8226 leukemia): 0.179 µM
TGI (RPMI-8226 leukemia): 0.368 µM
GI50 (MDA-MB-468 breast): 0.202 µM
TGI (MDA-MB-468 breast): 0.414 µM
GI50 (HT29 colon): 0.354 µM
TGI (HT29 colon): 1.43 µM
GI50 (HOP-62 NSCLC): 0.452 µM
TGI (HOP-62 NSCLC): 2.19 µM
GI50 (DU-145 prostate): 0.998 µM
TGI (DU-145 prostate): 4.08 µM
GI50 (SF-539 CNS): 0.349 µM
TGI (SF-539 CNS): 1.35 µM
GI50 (HCC-2998 colon): 0.367 µM
TGI (HCC-2998 colon): 1.5 µM
GI50 (MDA-MB-231 breast): 0.487 µM
TGI (MDA-MB-231 breast): 10 µM
GI50 (CAKI-1 renal): 0.548 µM
TGI (CAKI-1 renal): 5.09 µM
GI50 (SW-620 colon): 0.431 µM
TGI (SW-620 colon): 6.37 µM
GI50 (TK-10 renal): 1.51 µM
TGI (TK-10 renal): 6.94 µM
GI50 (ACHN renal): 0.618 µM
TGI (ACHN renal): 2.73 µM
GI50 (U251 glioblastoma): 0.581 µM
TGI (U251 glioblastoma): 2.11 µM
GI50 (NCI-H23 lung): 0.352 µM
TGI (NCI-H23 lung): 1.94 µM
GI50 (KM12 colon): 0.425 µM
TGI (KM12 colon): 1.85 µM
GI50 (NCI-H522 lung): 0.241 µM
TGI (NCI-H522 lung): 0.625 µM
GI50 (SF-268 CNS): 0.463 µM
TGI (SF-268 CNS): 2.52 µM
GI50 (HS 578T breast): 0.191 µM
TGI (HS 578T breast): 0.423 µM
GI50 (MALME-3M melanoma): 0.315 µM
TGI (MALME-3M melanoma): 1 µM
GI50 (T-47D breast): 0.294 µM
TGI (T-47D breast): 16.9 µM
GI50 (OVCAR-4 ovarian): 0.457 µM
TGI (OVCAR-4 ovarian): 2.21 µM
GI50 (MDA-MB-435 melanoma): 0.208 µM
TGI (MDA-MB-435 melanoma): 0.437 µM
GI50 (SF-295 CNS): 0.458 µM
TGI (SF-295 CNS): 1.9 µM
GI50 (EKVX NSCLC): 0.599 µM
TGI (EKVX NSCLC): 4.32 µM
GI50 (OVCAR-8 ovarian): 0.645 µM
TGI (OVCAR-8 ovarian): 2.46 µM
GI50 (A549 NSCLC): 0.625 µM
TGI (A549 NSCLC): 5.52 µM
GI50 (SNB-19 CNS): 0.637 µM
TGI (SNB-19 CNS): 5.17 µM
GI50 (COLO 205 colon): 0.489 µM
TGI (COLO 205 colon): 4.12 µM
GI50 (SR leukemia): 0.174 µM
TGI (SR leukemia): 0.333 µM
GI50 (SN12C renal): 0.671 µM
TGI (SN12C renal): 5.1 µM
GI50 (SK-OV-3 ovarian): 0.394 µM
TGI (SK-OV-3 ovarian): 2.22 µM
GI50 (SNB-75 CNS): 0.34 µM
TGI (SNB-75 CNS): 1.97 µM
GI50 (HOP-92 NSCLC): 0.569 µM
TGI (HOP-92 NSCLC): 3.25 µM
GI50 (A498 renal): 0.421 µM
TGI (A498 renal): 1.92 µM
GI50 (RXF 393 renal): 0.326 µM
TGI (RXF 393 renal): 1.03 µM
GI50 (HCT-15 colon): 0.4 µM
TGI (HCT-15 colon): 1.45 µM
GI50 (NCI-H226 lung): 1.07 µM
TGI (NCI-H226 lung): 3.63 µM
GI50 (MOLT-4 leukemia): 0.187 µM
TGI (MOLT-4 leukemia): 0.337 µM
GI50 (K-562 leukemia): 0.32 µM
TGI (K-562 leukemia): 0.968 µM
GI50 (IGROV1 ovarian): 0.676 µM
TGI (IGROV1 ovarian): 3.53 µM
GI50 (SK-MEL-5 melanoma): 0.237 µM
TGI (SK-MEL-5 melanoma): 0.55 µM
GI50 (CCRF-CEM leukemia): 0.175 µM
TGI (CCRF-CEM leukemia): 0.322 µM
GI50 (BT-549 breast): 0.385 µM
TGI (BT-549 breast): 1.62 µM
GI50 (OVCAR-5 ovarian): 2.02 µM
TGI (OVCAR-5 ovarian): 6.29 µM
GI50 (OVCAR-3 ovarian): 0.229 µM
TGI (OVCAR-3 ovarian): 0.492 µM
GI50 (M14 melanoma): 0.323 µM
TGI (M14 melanoma): 1.21 µM
GI50 (HL-60(TB) leukemia): 0.18 µM
TGI (HL-60(TB) leukemia): 0.325 µM
GI50 (NCI/ADR-RES ovarian): 0.676 µM
TGI (NCI/ADR-RES ovarian): 2.39 µM
GI50 ([…]-0 renal): 0.368 µM
TGI (786-0 renal): 1.59 µM
GI50 (PC-3 prostate): 0.611 µM
TGI (PC-3 prostate): 3.09 µM
GI50 (MCF7 breast): 0.317 µM
TGI (MCF7 breast): 1.84 µM
GI50 (SK-MEL-28 melanoma): 0.582 µM
TGI (SK-MEL-28 melanoma): 3.64 µM
GI50 (LOX IMVI melanoma): 0.523 µM
TGI (LOX IMVI melanoma): 1.79 µM
